{"source": "paper PMC11603362", "about": "“Cannabidiol inhibits transient receptor potential canonical 4 and modulates excitability of pyramidal neurons in mPFC” (Frontiers in Pharmacology, 2024)", "target": "T1, TRPC4 (Homo sapiens, UniProt Q9UBN4)", "T1 construct": "human TRPC4a channel", "T1 sequence (Q9UBN4 1-977)": "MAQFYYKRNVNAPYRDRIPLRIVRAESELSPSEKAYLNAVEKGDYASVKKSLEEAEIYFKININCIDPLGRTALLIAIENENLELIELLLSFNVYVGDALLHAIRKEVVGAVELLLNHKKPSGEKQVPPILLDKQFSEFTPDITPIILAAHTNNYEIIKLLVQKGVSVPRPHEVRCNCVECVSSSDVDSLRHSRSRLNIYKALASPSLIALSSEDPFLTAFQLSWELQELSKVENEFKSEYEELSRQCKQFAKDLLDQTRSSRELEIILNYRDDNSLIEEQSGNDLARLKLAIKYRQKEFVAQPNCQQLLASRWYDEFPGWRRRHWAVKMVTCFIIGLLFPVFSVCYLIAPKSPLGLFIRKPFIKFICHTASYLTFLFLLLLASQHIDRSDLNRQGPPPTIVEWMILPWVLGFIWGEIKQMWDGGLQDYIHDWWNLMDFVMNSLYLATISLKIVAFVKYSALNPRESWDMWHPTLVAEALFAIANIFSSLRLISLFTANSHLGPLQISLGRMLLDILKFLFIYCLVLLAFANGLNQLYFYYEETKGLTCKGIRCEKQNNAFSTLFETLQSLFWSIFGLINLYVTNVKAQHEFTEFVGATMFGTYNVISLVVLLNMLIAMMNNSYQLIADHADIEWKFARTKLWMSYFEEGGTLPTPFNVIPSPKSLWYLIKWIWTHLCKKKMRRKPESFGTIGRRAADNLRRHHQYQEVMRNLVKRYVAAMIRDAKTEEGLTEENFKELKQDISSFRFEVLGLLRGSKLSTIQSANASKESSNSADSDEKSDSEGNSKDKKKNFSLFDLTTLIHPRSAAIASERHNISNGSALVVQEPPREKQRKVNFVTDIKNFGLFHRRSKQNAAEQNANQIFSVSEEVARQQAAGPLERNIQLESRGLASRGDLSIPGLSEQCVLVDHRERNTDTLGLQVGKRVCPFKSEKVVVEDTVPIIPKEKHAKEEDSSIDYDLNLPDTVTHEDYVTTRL", "assay": "whole-cell patch clamp in HEK293-TRPC4 cells (EA-evoked current); also Ca2+ influx assay", "format": "cell-based"}
{"smiles": "C=C(C)[C@@H]1CCC(C)=C[C@H]1c1c(O)cc(CCCCC)cc1O", "note": "[CBD, Cannabidiol]", "values": [{"measurement": "IC50", "value": "1520 ± 600", "unit": "nM"}]}
